One may read the ED50 as the midpoint of the dose-response relation.

Holding throughout (assay type): in vivo
In test [1] the test system is dopamine. Kind of test: combined apomorphine (APO), tryptamine (TRY) and norepinephrine (NOR) test in rats: apomorphine. The note with it: for ED50: Rattus norvegicus. The text has this: (§1) The antipsychotic activity of the subject compounds is evidenced by the experimental data obtained in at least one of two different test procedures, viz. the combined apomorphine (APO), tryptamine (TRY) and norepinephrine (NOR) test in rats, and the apomorphine test in dogs. Said combined apomorphine, tryptamine and norepinephrine test is described in Ach. int. Pharmacodyn., 227, 238-253 (1977) and provides an empirical evaluation of the relative specificity with which drugs may effect particular neurotransmitter systems centrally (CNS) as well as peripherally. […] Said apomorphine test in dogs is described in Arzneim.-Forsch. (Drug Res.), 9, 765-767 (1959) and provides a measure of the duration of action of the tested compounds.

For the next test, the system named is norepinephrine. As to the kind of experiment: combined APO, TRY, NOR test in rats: norepinephrine. The note with it: for ED50: Rattus norvegicus.
Excerpt: as §1

Test [2] has as its system dopamine. As to the kind of experiment: apomorphine test in dogs (duration of action). The following applies: for (APO)-dog test, ED50, 4 hr: 240 min; for (APO)-dog test, ED50, 16 hr: 960 min; for ED50: Canis lupus familiaris.
Excerpt: The compounds of formula (I) show the additional advantage of being eliminated rather slowly from the body and thus of being long acting. This can be evidenced, for example, by measuring the plasma levels after oral administration to dogs and by the long acting antiemetic effect exerted by the present compounds on dogs challenged with the dopamine agonist apomorphine. Especially the compounds of formula (I) wherein R^3 is a higher alkylcarbonyloxy radical have a long duration of action. […] Consequently, the present compounds allow for a more efficient therapy: the slow elimination facilitates maintaining a stable plasma concentration at a non-toxic, effective level and the reduction in the number of administrations may be expected to result in better compliance of the subject to be treated with the prescribed medication.
as §1

Test [3] has as its system serotonin. Kind of test: combined APO, TRY, NOR test in rats: tryptamine convulsions (central). The note with it: for ED50: Rattus norvegicus.
Excerpt: as §1

Test [4] concerns serotonin. Kind of test: combined APO, TRY, NOR test in rats: tryptamine hyperaemia (peripheral). The following applies: for ED50: Rattus norvegicus.
Excerpt: as §1

The mark [5] stands for this setting: 1 h, read-out: (APO)-dog test, ED50, 1 hr.

`Cc1nc2n(c(=O)c1CCN1CCC(c3noc4cc(F)ccc34)CC1)CCCC2O` (single isomer, unassigned; (+)) [Compound 2, (+)-3-[2-[4-(6-fluoro-1,2-benzisoxazol-3-yl)-1-piperidinyl]ethyl]-6,7,8,9-tetrahydro-9-hydroxy-2-methyl-4H-pyrido[1,2-a]-pyrimidin-4-one]: the ED50 stood at 0.31 mg/kg in the test with dopamine [1], 1.25 mg/kg in the test with norepinephrine and 0.015 mg/kg with dopamine [2] (setting [5]). In addition, the “(APO)-dog test, ED50, 4 hr” value in the test with dopamine [2] was determined as 0.03 mg/kg. Besides, the “(APO)-dog test, ED50, 16 hr” value with dopamine [2] turned out to be 0.06 mg/kg. Further, in the test with serotonin [3], the “(TRY)-convulsions ED50” value is 0.08 mg/kg. Besides, the “(TRY)-hyperaemia ED50” value in the test with serotonin [4] was 0.31 µg/kg.
For `Cc1nc2n(c(=O)c1CCN1CCC(c3noc4cc(F)ccc34)CC1)CCCC2O` (single isomer, unassigned; (-)) [Compound 3, (-)-3-[2-[4-(6-fluoro-1,2-benzisoxazol-3-yl)-1-piperidinyl]-ethyl]-6,7,8,9-tetrahydro-9-hydroxy-2-methyl-4H-pyrido[1,2-a]-pyrimidin-4-one], in the test with dopamine [1], the “(APO) ED50” value came to 0.31 mg/kg. In addition, the “(NOR) ED50” value in the test with norepinephrine was determined as 0.63 mg/kg. Further, in the test with dopamine [2] (1 hr, 60 min), the “(APO)-dog test, ED50, 1 hr” value came out at 8 µg/kg. For the same compound, in the test on dopamine [2], the “(APO)-dog test, ED50, 4 hr” value turned out to be 0.007 mg/kg and the “(APO)-dog test, ED50, 16 hr” value worked out at 0.015 mg/kg. Moreover, the “(TRY)-convulsions ED50” value with serotonin [3] was determined as 0.31 mg/kg. The “(TRY)-hyperaemia ED50” value in the test on serotonin [4] was determined as 0.63 µg/kg.
In the case of `Cc1nc2n(c(=O)c1CCN1CCC(c3noc4cc(F)ccc34)CC1)CCCC2O` (stereo not drawn) [Compound 1, 3-[2-[4-(6-fluoro-1,2-benzisoxazol-3-yl)-1-piperidinyl]ethyl]-6,7,8,9-tetrahydro-9-hydroxy-2-methyl-4H-pyrido[1,2-a]pyrimidin4-one], the ED50 is 0.25 mg/kg in the test with dopamine [1]; 0.08 mg/kg with norepinephrine; 0.015 mg/kg in the test on dopamine [2] (setting [5]); 0.015 mg/kg in the test on dopamine [2] (4 h, read-out: (APO)-dog test, ED50, 4 hr); 0.015 mg/kg with dopamine [2] (16 h, read-out: (APO)-dog test, ED50, 16 hr); 0.31 mg/kg with serotonin [3]. Further, the ED50 in the test with serotonin [4] came to 2 µg/kg.
`CC(=O)OC1CCCn2c1nc(C)c(CCN1CCC(c3noc4cc(F)ccc34)CC1)c2=O` (stereo not drawn) [Compound 4, 3-[2-[4-(6-fluoro-1,2-benzisoxazol-3-yl)-1-piperidinyl]ethyl]-6,7,8,9-tetrahydro-2-methyl-4-oxo-4H-pyrido[1,2-a]pyrimidin-9-ol acetate(ester)]: the ED50 came to 0.31 mg/kg in the test on dopamine [1], 0.015 mg/kg with dopamine [2] (setting [5]), 0.08 mg/kg in the test with serotonin [3] and 0.31 µg/kg in the test on serotonin [4].
Regarding `CCCC(=O)OC1CCCn2c1nc(C)c(CCN1CCC(c3noc4cc(F)ccc34)CC1)c2=O` (stereo not drawn) [Compound 5, [3-[2-[4-(6-fluoro-1,2-benzisoxazol-3-yl)-1-piperidinyl]ethyl]-6,7,8,9-tetrahydro-2-methyl-4-oxo-4H-pyrido[1,2-a]pyrimidin-9-yl]butanoate], the ED50 in the test on dopamine [1] worked out at 0.31 mg/kg; in the test with norepinephrine, 0.16 mg/kg; in the test with dopamine [2] (setting [5]), 0.008 mg/kg; in the test with serotonin [3] it was 0.31 mg/kg; in the test with serotonin [4], 1.25 µg/kg.

These data come from US5158952A, “3-[2-[4-(6-fluoro-1,2-benzisoxozol-3-yl)-1-piperidinyl]ethyl]-6,7,8,9 tetrahydro-9-hydroxy-2-methyl-4H-pyrido [1,2-a]pyrimidin-4-one, compositions and method of use” (Janssen Pharmaceutica N.V., priority 1989, dated 1992).
